Measurements as given in patent publication US5066676A, “Sulfonamido derivative inhibiting the aldose reductase enzyme system and pharmaceutical compositions containing them” (Laboratori Baldacci SpA, priority 1987, dated 1991).
One block for each compound: values may come before it.

Experiments:
aldose reductase = molecular target: T1, aldose reductase (Bos taurus, UniProt P16116); test: In vitro inhibition of aldose reductase activity of raw extracts from bovine crystalline lens; assay type: biochemical; details: for inhibiting action of the aldose reductase activity (in words): bovine lens extract; for IC50: glyceraldehyde substrate, NADPH, pH 6.8, 37° C., read-out: IC50 on the aldose reductase activity of raw extracts originating from bovine crystalline lens
T1 construct: 4 bovine crystalline lenses (8 g) are homogenized by means of Potter in ice bath; from tissue; host or cells: bovine crystalline lens
Procedure: "In vitro" tests have been carried out to evalute the inhibition of the aldose reductase activity, prepared from the extract of bovine crystalline lenses.
PREPARATION OF THE RAW EXTRACTS
4 bovine crystalline lenses (8 g) are homogenized by means of Potter in ice bath with 40 ml of 50 mM phosphate buffer, pH 6.8, containing 2-mercaptoethanol pH ([…]). After centrifugation (12.000×g -20 min-4° C.) the supernatant is brought to 40% saturation with an ammonium sulphate and centrifugated again (14.000×g). The supernatant is then brought to the 80% saturation ((NH4)2 SO4) and, after centrifugation for 20 minutes and at 14.000×g, the sedimented matter is recovered and suspended in 7 ml of phosphate buffer. The enzymatic preparation is dialyzed by ultrafiltration with AMICON ultrafiltration cell.
DOSAGE OF THE ENZYMATIC ACTIVITY
The reference cuvette contains all the several substances apart from the substrate.

Acute toxicity: mice = details: in vivo, mouse (Swiss), read-out: % Death
Procedure: (§1) The toxicity tests after only one administration have been carried out on two animal species (mice and rats), using two administration routes (os, iv).
For these tests Swiss mice have been used, of both sexes, having average weight 20 g, fasted after 18 hours and administered with water ad libitum. The animals were maintained under standard environment conditions (temperature: 20°-22° C. and moisture 50%).
(§2) The compounds have been administered by gastric probe, suspended in Methocell or by injection (iv) dissolved in physiological solution with the addition of sodium bicarbonate.
(§3) The animals have been kept under observation for 15 days. The controls have been carried out several times in the first days and twice a day in the next days. In the table 1 the conditions used and the results obtained are reported.

[1] = test system: galactosemic cataract in the rat; test: Action on the appearance of the galactosemic cataract (rat); assay type: in vivo
Procedure: (§4) With the compound bearing the abbreviation ARI 6 the following tests have been carried out in the rat and in the rabbit.
Action on the appearance of the galactosemic cataract (rat)
Effects of the administration of ARI-6 (5 and 25 mg/kg/die, os)
on the appearance of the galactosemic cataract in the rat.
[…] In the brackets the number of animals for each group is indicated.
The diet contains D-galactose 50%.
Effects of the administration of ARI-1 (5 and 25 mg/kg/die, os)

Acute toxicity: rat = details: in vivo, rat (Wistar), 20 ml/kg, read-out: % Death
Excerpt: as §1, §2, §3
Wistar rats, of both sexes have been used of average weight of 120 g, fasted after 18 hours and with water at libitum. The conditions of stalling and the administration ways were the same as those reported in the preceeding paragraph (acute toxicity: mouse).

[2] = test system: diabetic cataract in the rat; test: Action on the appearance of the diabetic cataract (rat); assay type: in vivo; details: Table 7, 25 mg/kg/die per os
Procedure: as §4
Action on the appearance of the diabetic cataract (rat).
Effects of the administration of ARI 6 (25 mg/kg/die, per os)
on the appearance of the diabetic cataract in the rat.
The values are expressed as percentages. Within brackets there are indicated the animals for each group.
Effects of the administration of ARI-1 (25 mg/kg/die, per os)

[3] = Table 6, 5 mg/kg/die os, day 5 of diet
[4] = Table 6, 5 mg/kg/die os, day 10 of diet, * p < 0.05 vs controls
[5] = Table 6, 5 mg/kg/die os, day 15 of diet, * p < 0.05 vs controls
[6] = Table 6, 5 mg/kg/die os, day 20 of diet, * p < 0.05 vs controls
[7] = Table 6, 5 mg/kg/die os, day 25 of diet, * p < 0.05 vs controls
[8] = Table 6, 5 mg/kg/die os, day 30 of diet, * p < 0.05 vs controls
[9] = Table 6, 5 mg/kg/die os, day 35 of diet, * p < 0.05 vs controls
[10] = Table 6, 5 mg/kg/die os, day 40 of diet, * p < 0.05 vs controls
[11] = Table 6, 5 mg/kg/die os, day 45 of diet, * p < 0.05 vs controls
[12] = Table 6, 5 mg/kg/die os, day 50 of diet
[13] = Table 6, 25 mg/kg/die os, day 5 of diet
[14] = Table 6, 25 mg/kg/die os, day 10 of diet, * p < 0.05 vs controls
[15] = Table 6, 25 mg/kg/die os, day 15 of diet, * p < 0.05 vs controls
[16] = Table 6, 25 mg/kg/die os, day 20 of diet, * p < 0.05 vs controls
[17] = Table 6, 25 mg/kg/die os, day 25 of diet, * p < 0.05 vs controls
[18] = Table 6, 25 mg/kg/die os, day 30 of diet, * p < 0.05 vs controls
[19] = Table 6, 25 mg/kg/die os, day 35 of diet, * p < 0.05 vs controls
[20] = Table 6, 25 mg/kg/die os, day 40 of diet, * p < 0.05 vs controls
[21] = Table 6, 25 mg/kg/die os, day 45 of diet, * p < 0.05 vs controls
[22] = Table 6, 25 mg/kg/die os, day 50 of diet
[23] = day 10 from streptozotocine, * p < 0.05 vs controls
[24] = day 15 from streptozotocine, * p < 0.05 vs controls
[25] = day 20 from streptozotocine, * p < 0.05 vs controls
[26] = day 25 from streptozotocine, * p < 0.05 vs controls
[27] = day 30 from streptozotocine, * p < 0.05 vs controls
[28] = day 35 from streptozotocine, * p < 0.05 vs controls
[29] = day 40 from streptozotocine, * p < 0.05 vs controls
[30] = day 45 from streptozotocine, * p < 0.05 vs controls
[31] = day 50 from streptozotocine, * p < 0.05 vs controls

IC50 (aldose reductase): 1000 nM
Compound: CN(CC(=O)O)S(=O)(=O)c1ccc2oc3ccc(S(=O)(=O)N(C)CC(=O)O)cc3c(=O)c2c1 [ARI 9, 2,7-bis (N-methyl-N-carboxymethyl) sulfamoylxanthone]
inhibiting action of the aldose reductase activity (in words) (aldose reductase): higher activity, with respect to the of sorbinil and of ARI 1

Compound: Cc1cc(C)c(S(=O)(=O)N(C)CC(=O)O)cc1S(=O)(=O)N(C)CC(=O)O [ARI 1, 4,6-dimethyl-1,3-bis (N-methyl-N-caboxymethl) sulfamoybenzene]
mortality at 360 h (Acute toxicity: mice; po, 5000 mg/kg/os): 0%
mortality at 360 h (Acute toxicity: mice; 500 mg/kg/iv, 20 ml/kg): 0%
IC50 (aldose reductase): 3600 nM
number of eyes with cataract on the total number of observed eyes [1, 3]: 0/20
percentage of eyes with cataract [1, 3]: 0.0%
number of eyes with cataract on the total number of observed eyes [1, 4]: 0/20
percentage of eyes with cataract [1, 4]: 0.0%
number of eyes with cataract on the total number of observed eyes [1, 5]: 0/20
percentage of eyes with cataract [1, 5]: 0.0%
number of eyes with cataract on the total number of observed eyes [1, 6]: 0/20
percentage of eyes with cataract [1, 6]: 0.0%
number of eyes with cataract on the total number of observed eyes [1, 7]: 3/20
percentage of eyes with cataract [1, 7]: 15.0%
number of eyes with cataract on the total number of observed eyes [1, 8]: 4/20
percentage of eyes with cataract [1, 8]: 20.0%
number of eyes with cataract on the total number of observed eyes [1, 9]: 8/20
percentage of eyes with cataract [1, 9]: 40.0%
number of eyes with cataract on the total number of observed eyes [1, 10]: 8/20
percentage of eyes with cataract [1, 10]: 100.0%
number of eyes with cataract on the total number of observed eyes [1, 11]: 20/20
percentage of eyes with cataract [1, 11]: 100.0%
number of eyes with cataract on the total number of observed eyes [1, 12]: 20/20
percentage of eyes with cataract [1, 12]: 100.0%
number of eyes with cataract on the total number of observed eyes [1, 13]: 0/20
percentage of eyes with cataract [1, 13]: 0.0%
number of eyes with cataract on the total number of observed eyes [1, 14]: 0/20
percentage of eyes with cataract [1, 14]: 0.0%
number of eyes with cataract on the total number of observed eyes [1, 15]: 0/20
percentage of eyes with cataract [1, 15]: 0.0%
number of eyes with cataract on the total number of observed eyes [1, 16]: 0/20
percentage of eyes with cataract [1, 16]: 0.0%
number of eyes with cataract on the total number of observed eyes [1, 17]: 0/20
percentage of eyes with cataract [1, 17]: 0.0%
number of eyes with cataract on the total number of observed eyes [1, 18]: 0/20
percentage of eyes with cataract [1, 18]: 0.0%
number of eyes with cataract on the total number of observed eyes [1, 19]: 0/20
percentage of eyes with cataract [1, 19]: 0.0%
number of eyes with cataract on the total number of observed eyes [1, 20]: 3/20
percentage of eyes with cataract [1, 20]: 15.0%
number of eyes with cataract on the total number of observed eyes [1, 21]: 5/20
percentage of eyes with cataract [1, 21]: 25.0%
number of eyes with cataract on the total number of observed eyes [1, 22]: 20/20
percentage of eyes with cataract [1, 22]: 100.0%
mortality at 360 h (Acute toxicity: rat; po, 5000 mg/kg/os): 0%
mortality at 360 h (Acute toxicity: rat; 500 mg/kg/iv): 0%
number of eyes with cataract with respect the total number of observed eyes ([2]; day 5 from streptozotocine): 0/20
percentage of eyes with cataract ([2]; day 5 from streptozotocine): 0.0%
number of eyes with cataract with respect the total number of observed eyes [2, 23]: 0/20
percentage of eyes with cataract [2, 23]: 0.0%
number of eyes with cataract with respect the total number of observed eyes [2, 24]: 0/20
percentage of eyes with cataract [2, 24]: 0.0%
number of eyes with cataract with respect the total number of observed eyes [2, 25]: 0/20
percentage of eyes with cataract [2, 25]: 0.0%
number of eyes with cataract with respect the total number of observed eyes [2, 26]: 0/20
percentage of eyes with cataract [2, 26]: 0.0%
number of eyes with cataract with respect the total number of observed eyes [2, 27]: 0/20
percentage of eyes with cataract [2, 27]: 0.0%
number of eyes with cataract with respect the total number of observed eyes [2, 28]: 0/20
percentage of eyes with cataract [2, 28]: 0.0%
number of eyes with cataract with respect the total number of observed eyes [2, 29]: 4/20
percentage of eyes with cataract [2, 29]: 20.0%
number of eyes with cataract with respect the total number of observed eyes [2, 30]: 6/20
percentage of eyes with cataract [2, 30]: 30.0%
number of eyes with cataract with respect the total number of observed eyes [2, 31]: 20/20
percentage of eyes with cataract [2, 31]: 100.0%

Compound: CN(CC(=O)O)S(=O)(=O)c1ccc2oc3ccc(F)cc3c(=O)c2c1 [ARI 8, 7-fluoro-2-(N-methyl-N-carboxymethyl)sulfamoylxanthone]
mortality at 360 h (Acute toxicity: mice; po, 5000 mg/kg/os): 10%
mortality at 360 h (Acute toxicity: mice; 400 mg/kg/iv): 0%
inhibiting action of the aldose reductase activity (in words) (aldose reductase): higher activity, with respect to the of sorbinil and of ARI 1
IC50 (aldose reductase): 1000 nM
mortality at 360 h (Acute toxicity: rat; po, 5000 mg/kg/os): 30%
mortality at 360 h (Acute toxicity: rat; 500 mg/kg/iv): 40%
mortality at 360 h (Acute toxicity: rat; 400 (unit and route not given)): 0%
